Reference: US10520504B2, “Fluorescent polybranched probes for detecting bacteria and/or fungi in vitro and in vivo” (priority 2014, dated 2019)
“Also recorded” adds a separate entry of the source. Numbered stars: 1 amine (or outer) side, 2 acyl side, 3 side chain; on linkers, the order of the positions; unused ones are H or OH. Bridge positions count the residues as written; N and C are the ends. Square brackets hold non-standard residues; d marks the D form. Ends that are not written are not given here. Peptide text beside a SMILES is read from it. I, II: the chains in the order shown. * marks the point of attachment. ξ: configuration not given here. X2 = CN(C)c1ccc2c(c1)Oc1cc(N(C)C)ccc1C21OC(=O)c2ccc(C(=O)*)cc21; X1 = NC(=O)NC(COCCCN[*:1])(COCCCN[*:2])COCCCN[*:3]; NBD = O=[N+]([O-])c1ccc(*)c2nonc12; dDab = NCC[C@@H](N)C(=O)O; Nle = CCCC[C@H](N)C(=O)O; Dab = NCC[C@H](N)C(=O)O; AEEA = NCCOCCOCC(=O)O; ξDab = NCCC(N)C(=O)O; ξK = NCCCCC(N)C(=O)O; ξV = CC(C)C(N)C(=O)O; Ahx = NCCCCCC(=O)O; ξP = O=C(O)C1CCCN1; ξA = CC(N)C(=O)O

How the values were obtained:
[1] = Stability in saline or ALI BALF by MALDI-TOF MS / FTMS; details: incubated 30 minutes
Protocol: Secondly we assessed stability of the probes in BALF from patients with ALI by FTMS and MALDI-TOF MS analysis. NBD-UBINle, NBD-UBIdend and NBD-PMX were incubated for 30 minutes with BALF (FIG. 13).
In vitro labelling was assessed on benchtop confocal in the presence of compound with bacteria and labelling was compared to NBD-UBINle which served as a reference control for bacterial labelling. […] For the ex vivo and in vivo ovine lung experiments each compound was assessed in a control lung segment (instilled with 2 ml PBS) or a bacterial segment (instilled with 2 ml of 2 optical density of bacteria). Following bacterial instillation, the compound was administered to the segment of interest and this was imaged by probe based FCFM.
Probe was added to saline or pooled BALF from patients with ALI incubated for 30 minutes. A ZipTip (C-18, 0.2 μL) with 5 μL MeCN (with 0.1% TFA as an additive) followed by 20 μL of H2O was washed. The ZipTip was loaded with the sample, washed and eluted into 5 μL of 80% aq. MeCN (with 0.1% TFA as an additive). The sample was analysed by MALDI-TOF (PerSeptive Biosystems Voyager DE™STR MALDI-TOF mass spectrometer (Applied Biosystems, Foster City, Calif.)).

[2] = target: T1, human neutrophil elastase (HNE) (Homo sapiens, UniProt P08246); assay: Elastase dependent bacterial labelling in co-culture of bacteria and neutrophils; assay type: cell-based; details: for labelling of activated neutrophils: TAMRA signal; for elastase dependent bacterial labelling: bacteria with neutrophils
T1 construct: endogenous in cells; host or cells: isolated human neutrophils (co-culture with MSSA or P. aeruginosa)
T1 sequence (P08246 30-267): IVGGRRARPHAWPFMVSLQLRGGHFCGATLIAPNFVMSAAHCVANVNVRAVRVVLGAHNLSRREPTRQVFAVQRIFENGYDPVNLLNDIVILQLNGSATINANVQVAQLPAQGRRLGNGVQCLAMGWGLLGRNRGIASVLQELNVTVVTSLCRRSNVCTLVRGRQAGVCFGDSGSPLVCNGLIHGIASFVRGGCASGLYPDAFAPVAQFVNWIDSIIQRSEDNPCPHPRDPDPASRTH
Excerpt: A first example of elastase sensitive probes (shown schematically in FIG. 16A) comprises methyl red (acting as a dark quencher) connected via the peptide sequence AAPV (SEQ. ID NO: 9). (acting as the enzyme cleavable peptide sequence of the cleavable linker) to 7-nitrobenz-2-oxa-1,3-diazole (NBD) and the ubiquicidin fragment UBI29-41 (together acting as the probe element). Accordingly, the NBD fluorescence is quenched by the methyl red and no fluorescent signal will be observed (i.e. the methyl red and NBD are acting as a FRET pair) and therefore, whether or not the probe is bound to any bacteria that may be present in the target area via UBI29-41, no signal is observed using confocal microscopy.
When the probe is in the presence of human neutrophil elastase (HNE), such as in inflamed tissue, HNE cleaves the peptide sequence of the linker, to thereby free the probe element from the methyl red quencher. Accordingly, the NBD fluorophore is no longer quenched and produces a fluorescent signal. In addition, due to the environmental sensitivity of the NBD, the signal produced is greatly amplified if the NBD is in a hydrophobic environment, such as within a cell membrane.

elastase = elastase (Homo sapiens, UniProt P08246); details: ex 525 nm, Em 580 nm

With `CCCC[C@H](NC(=O)[C@H](CCCNC(=N)N)NC(=O)[C@H](CCCNC(=N)N)NC(=O)[C@H](CCCCN)NC(=O)[C@H](C)NC(=O)[C@H](CCCNC(=N)N)NC(=O)CNC(=O)[C@@H](NC(=O)CCCCCNc1ccc([N+](=O)[O-])c2nonc12)[C@@H](C)O)C(=O)N[C@@H](CCC(N)=O)C(=O)N[C@@H](Cc1ccc(O)cc1)C(=O)N[C@@H](CC(N)=O)C(=O)N[C@@H](CCCNC(=N)N)C(=O)N[C@@H](CCCNC(=N)N)C(N)=O` [NBD-UBINle] ({NBD-Ahx}-TGRAKRR[Nle]QYNRR-NH2; N-terminus and C-terminus assumed) the “stability in BALF from patients with ALI” value [1] was “degradation; also recorded: instability in lavage fluid”.
For `CC(C)C[C@H]1NC(=O)[C@@H](Cc2ccccc2)NC(=O)[C@@H](CCN)NC(=O)C(NC(=O)[C@H](CCN)NC(=O)[C@@H](NC(=O)COCCOCCNC(=O)C(CCCCNc2ccc([N+](=O)[O-])c3nonc23)NC(=O)C(NC(=O)C2CCCN2C(=O)C(C)NC(=O)C(C)NC(=O)c2ccc3c(c2)C2(OC3=O)c3ccc(N(C)C)cc3Oc3cc(N(C)C)ccc32)C(C)C)[C@@H](C)O)CCNC(=O)[C@@H]([C@H](C)O)NC(=O)[C@H](CCN)NC(=O)[C@H](CCN)NC1=O` (stereo partly drawn) [TAMRA-AAPV-NBD-PMX] (X2-[ξA][ξA][ξP][ξV][ξK](NBD)[AEEA]T[Dab][ξDab][dDab][dF][dL][Dab][Dab][dT]; lactam 9-C), the “bacterial labelling with unactivated neutrophils” value ([2]; P. aeruginosa) was “no labelling in the presence of unactivated neutrophils”, the “labelling of activated neutrophils” value [2] was “labelling of activated neutrophils in an elastase independent manner” and the “labelling of activated neutrophils” value ([2]; listed as Example 2) was “labelled by the TAMRA moiety”. The “elastase dependent bacterial labelling” value [2] was “bacterial labelling in an elastase dependent manner”, the “elastase dependent bacterial labelling” value ([2]; listed as Example 2) was “the bacteria are labelled by the probe element” and the “TAMRA fluorescence increase with elastase inhibitor” value (elastase) was “inhibited with an elastase inhibitor”. The “fluorescence of TAMRA following cleavage” value (elastase; elastase) was “increase in fluorescence”.
For “Example 1: methyl red dark quencher connected via AAPV to NBD and ubiquicidin fragment UBI29-41 (also: methyl red quencher attached, side not given here, NBD and ubiquicidin fragment UBI29-41 attached, side not given here)”, the “elastase dependent bacterial labelling” value [2] was “cleaved by neutrophil derived HNE and to label bacteria” and the “bacterial labelling with elastase inhibitor” value ([2]; sivelestat added to the medium) was “no labelling was observed”.
For “I: {NBD-AEEA}-TGRAKRR[Nle]QYNRR[AEEA] / II: {NBD-AEEA}-TGRAKRR[Nle]QYNRR[AEEA] / III: {NBD-AEEA}-TGRAKRR[Nle]QYNRR[AEEA] (linker I:C-II:C-III:C via X1) [NBD-UBIdend]”, the “stability in BALF from patients with ALI” value [1] was “remains stable; also recorded: demonstrate stability”.
